Measured values published in patent US9605078B2, “Pictet-Spengler ligation for protein chemical modification” (THE REGENTS OF THE UNIVERSITY OF CALIFORNIA, priority 2012, dated 2017).

Assay: Small molecule hydrolysis of model oxime and oxacarboline, followed by liquid chromatography
Type: physicochemical
Details: 1 μM, buffered solutions at pH 4.5 or 5.0, room temperature, over two days
Procedure: Small molecule hydrolysis: Hydrolysis solutions contained 1 μM 5a or 5b, 25 μM phenylalanine as an internal standard, and 5 mM sodium acetate at the appropriate pH. The solutions were incubated at room temperature and 50 μL aliquots were repeatedly analyzed by liquid chromatography on an Agilent 1200 instrument using an Agilent Poroshell 120 EC-C18 reverse phase column (4.6×50 mm) with a solvent flow rate of 0.4 mL/min. The following gradient was employed (time (min), % MeCN in H2O with 0.1% TFA): 0, 5; 10, 95; 12, 95; 14, 5; 19, 5. The time of the first injection for each solution was assigned as t=0. Integrals of the absorption peaks for 5a and 5b at 440 nm were normalized against the phenylalanine peak for each injection.

| SMILES | hydrolysis of conjugate (liquid chromatography) | conjugate remained intact (liquid chromatography) |
| --- | --- | --- |
| O=C(NCCC=NOCc1ccccc1)c1ccc(-c2c3ccc(=O)cc-3oc3cc(O)ccc23)c(C(=O)O)c1 (racemic) [Compound 5a, 5-((3-((Benzyloxy)imino)propyl)carbamoyl)-2-(6-hydroxy-3-oxo-3H-xanthen-9-yl)benzoic acid] | majority of oxime 5a hydrolyzed | – |
| CN1OCc2c(c3ccccc3n2CCC(=O)O)C1CCNC(=O)c1ccc(-c2c3ccc(=O)cc-3oc3cc(O)ccc23)c(C(=O)O)c1 (centres unmarked) [Compound 5b, 5-((2-(5-(2-Carboxyethyl)-2-methyl-1,2,4,5-tetrahydro-[1,2]oxazino [5,4-b]indol-1-yl)ethyl)carbamoyl)-2-(6-hydroxy-3-oxo-3H-xanthen-9-yl)benzoic acid] | – | over 90% |
